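These data come from cells grown in 96-well plates and exposed to compound for 48 hours at five concentrations. At the GI50, growth is halved. TGI denotes the concentration required for complete inhibition of growth.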
Tests used:
Assay in all cases: inhibition of tumour cell growth, NCI panel, 48 h; in the data active = GI50 below about 0.43 µM; inactive = the rest
786-0 renal = tested on: 786-0 renal
A498 renal = tested on: A498 renal
A549 NSCLC = tested on: A549 NSCLC
ACHN renal = tested on: ACHN renal
BT-549 breast = tested on: BT-549 breast
CAKI-1 renal = tested on: CAKI-1 renal
CCRF-CEM leukemia = tested on: CCRF-CEM leukemia
COLO 205 colon = tested on: COLO 205 colon
DU-145 prostate = tested on: DU-145 prostate
HCC-2998 colon = tested on: HCC-2998 colon
HCT-116 colon = tested on: HCT-116 colon
HCT-15 colon = tested on: HCT-15 colon
HL-60(TB) leukemia = tested on: HL-60(TB) leukemia
HOP-62 NSCLC = tested on: HOP-62 NSCLC
HOP-92 NSCLC = tested on: HOP-92 NSCLC
HS 578T breast = tested on: HS 578T breast
HT29 colon = tested on: HT29 colon
IGROV1 ovarian = tested on: IGROV1 ovarian
K-562 leukemia = tested on: K-562 leukemia
KM12 colon = tested on: KM12 colon
LOX IMVI melanoma = tested on: LOX IMVI melanoma
MALME-3M melanoma = tested on: MALME-3M melanoma
MCF7 breast = tested on: MCF7 breast
MDA-MB-231 breast = tested on: MDA-MB-231 breast
MDA-MB-435 = tested on: MDA-MB-435
MOLT-4 leukemia = tested on: MOLT-4 leukemia
NCI-H226 lung = tested on: NCI-H226 lung
NCI-H23 lung = tested on: NCI-H23 lung
NCI-H460 lung = tested on: NCI-H460 lung
NCI-H522 lung = tested on: NCI-H522 lung
NCI/ADR-RES ovarian = tested on: NCI/ADR-RES ovarian
OVCAR-3 ovarian = tested on: OVCAR-3 ovarian
OVCAR-4 ovarian = tested on: OVCAR-4 ovarian
OVCAR-5 ovarian = tested on: OVCAR-5 ovarian
OVCAR-8 ovarian = tested on: OVCAR-8 ovarian
PC-3 prostate = tested on: PC-3 prostate
RPMI-8226 leukemia = tested on: RPMI-8226 leukemia
RXF 393 renal = tested on: RXF 393 renal
SF-268 CNS = tested on: SF-268 CNS
SF-295 CNS = tested on: SF-295 CNS
SF-539 CNS = tested on: SF-539 CNS
SK-MEL-2 melanoma = tested on: SK-MEL-2 melanoma
SK-MEL-28 melanoma = tested on: SK-MEL-28 melanoma
SK-MEL-5 melanoma = tested on: SK-MEL-5 melanoma
SK-OV-3 ovarian = tested on: SK-OV-3 ovarian
SN12C renal = tested on: SN12C renal
SNB-19 CNS = tested on: SNB-19 CNS
SNB-75 CNS = tested on: SNB-75 CNS
SW-620 colon = tested on: SW-620 colon
T-47D breast = tested on: T-47D breast
TK-10 renal = tested on: TK-10 renal
U251 CNS = tested on: U251 CNS
UACC-62 melanoma = tested on: UACC-62 melanoma
UO-31 renal = tested on: UO-31 renal

COC(=O)C(N)CSC(c1ccccc1)(c1ccccc1)c1ccccc1 (stereo not drawn)
3.53 µM: TGI (SF-539 CNS)
74 µM: TGI (MALME-3M melanoma)
13.2 µM: TGI (HOP-92 NSCLC)
26.9 µM: TGI (SK-MEL-5 melanoma)
28.5 µM: TGI (RPMI-8226 leukemia)
29.9 µM: TGI (HCC-2998 colon)
2.22 µM: TGI (NCI-H522 lung)
43.8 µM: TGI (NCI-H460 lung)
5.72 µM: TGI (SK-MEL-2 melanoma)
59.6 µM: TGI (HT29 colon)
73.5 µM: TGI (NCI/ADR-RES ovarian)
53.3 µM: TGI (BT-549 breast)
44.8 µM: TGI (OVCAR-3 ovarian)
86.5 µM: TGI (786-0 renal)
11.7 µM: TGI (RXF 393 renal)
41.6 µM: TGI (SNB-75 CNS)
15 µM: TGI (HS 578T breast)
53.5 µM: TGI (KM12 colon)
83.5 µM: TGI (TK-10 renal)
inactive: GI50 (786-0 renal) 4.23 µM | GI50 (A498 renal) 0.629 µM | GI50 (A549 NSCLC) 2.93 µM | GI50 (ACHN renal) 0.922 µM | GI50 (BT-549 breast) 2.29 µM | GI50 (CAKI-1 renal) 5.51 µM | GI50 (CCRF-CEM leukemia) 0.636 µM | GI50 (COLO 205 colon) 2.15 µM | GI50 (DU-145 prostate) 3.26 µM | GI50 (HCC-2998 colon) 2.1 µM | GI50 (HCT-15 colon) 2.7 µM | GI50 (HL-60(TB) leukemia) 1.82 µM | GI50 (HOP-62 NSCLC) 48.9 µM | GI50 (HOP-92 NSCLC) 0.436 µM | GI50 (HS 578T breast) 0.512 µM | GI50 (HT29 colon) 3.36 µM | GI50 (IGROV1 ovarian) 9.86 µM | GI50 (K-562 leukemia) 0.63 µM | GI50 (KM12 colon) 2.88 µM | GI50 (LOX IMVI melanoma) 4.48 µM | GI50 (MALME-3M melanoma) 4.7 µM | GI50 (MCF7 breast) 0.445 µM | GI50 (MDA-MB-231 breast) 1.62 µM | GI50 (MOLT-4 leukemia) 4 µM | GI50 (NCI-H226 lung) 5.38 µM | GI50 (NCI-H23 lung) 4.45 µM | GI50 (NCI-H460 lung) 2.42 µM | GI50 (NCI/ADR-RES ovarian) 8.81 µM | GI50 (OVCAR-3 ovarian) 2.97 µM | GI50 (OVCAR-4 ovarian) 15.5 µM | GI50 (OVCAR-5 ovarian) 3.84 µM | GI50 (OVCAR-8 ovarian) 2.53 µM | GI50 (PC-3 prostate) 1.72 µM | GI50 (RPMI-8226 leukemia) 0.676 µM | GI50 (SF-268 CNS) 1.04 µM | GI50 (SF-295 CNS) 2.89 µM | GI50 (SK-MEL-2 melanoma) 0.493 µM | GI50 (SK-MEL-28 melanoma) 3.14 µM | GI50 (SK-MEL-5 melanoma) 0.538 µM | GI50 (SK-OV-3 ovarian) 0.607 µM | GI50 (SN12C renal) 0.863 µM | GI50 (SNB-19 CNS) 1.58 µM | GI50 (SNB-75 CNS) 3.68 µM | GI50 (SW-620 colon) 0.679 µM | GI50 (T-47D breast) 4.62 µM | GI50 (TK-10 renal) 7.04 µM | GI50 (U251 CNS) 0.61 µM | GI50 (UACC-62 melanoma) 2.18 µM | GI50 (UO-31 renal) 9.93 µM
34.4 µM: TGI (HCT-116 colon)
8.48 µM: TGI (HL-60(TB) leukemia)
active: GI50 (HCT-116 colon) 0.418 µM | GI50 (MDA-MB-435) 0.247 µM | GI50 (NCI-H522 lung) 0.334 µM | GI50 (RXF 393 renal) 0.303 µM | GI50 (SF-539 CNS) 0.399 µM
25.4 µM: TGI (MDA-MB-231 breast)
0.644 µM: TGI (MDA-MB-435)
> 100 µM: TGI (A549 NSCLC) | TGI (ACHN renal) | TGI (CAKI-1 renal) | TGI (CCRF-CEM leukemia) | TGI (COLO 205 colon) | TGI (DU-145 prostate) | TGI (HCT-15 colon) | TGI (HOP-62 NSCLC) | TGI (IGROV1 ovarian) | TGI (K-562 leukemia) | TGI (LOX IMVI melanoma) | TGI (MCF7 breast) | TGI (MOLT-4 leukemia) | TGI (NCI-H226 lung) | TGI (NCI-H23 lung) | TGI (OVCAR-4 ovarian) | TGI (OVCAR-5 ovarian) | TGI (OVCAR-8 ovarian) | TGI (PC-3 prostate) | TGI (SF-268 CNS) | TGI (SF-295 CNS) | TGI (SK-MEL-28 melanoma) | TGI (SK-OV-3 ovarian) | TGI (SN12C renal) | TGI (SNB-19 CNS) | TGI (SW-620 colon) | TGI (T-47D breast) | TGI (U251 CNS) | TGI (UACC-62 melanoma) | TGI (UO-31 renal)
54 µM: TGI (A498 renal)
